Test system: adults of Culex pipiens pallen
Assay: Blood-sucking repelling test on forearms
Assay type: in vivo
Details: 1% test sample solution on forearms, 15 minutes exposure, 30° C., humidity 70%
Method: […] of 1% test sample solutions were prepared by dissolving 1 g of each of the fragrant compositions of Examples 1, 2 and 3, Comparative Example 3 (Pelargonium citrosum extract), and Comparative Example 4 (DEET) into 90 g of ethanol and adding 9 g of water.
On the sample solutions of Examples 1, 2 and 3 and Comparative Examples 3 and 4, a blood-sucking repelling test toward adults of Culex pipiens pallen was carried out, whereby strength of mosquito-repellency and persistency were compared.
The test was carried out in a constant-temperature room kept at a temperature of 30° C. and a humidity of 70%.
After 10 ml of each test sample solution was applied onto right and left forearms, each arm was entered for 15 minutes into a bag-shape wire netting having a size of 20 cm×15 cm in which 50 each of male and female mosquitoes which were 5 to 7 days after emergence were placed, whereby the mosquitoes were allowed to suck blood. This operation was repeatedly carried out 1 hour, 2 hours, 3 hours, 4 hours, and 6 hours after the sample application, the number of sucked places within the sucking time was counted, and repellency was calculated according to the following equation.
Repellency=[(X−Y)/X]×100(%)
X: the number of sucked places in the case that no test sample solution was applied.
Y: the number of sucked places in the case that a test sample solution was applied.

CCN(CC)C(=O)c1cccc(C)c1 [Comparative Example 4, N,N-Diethyl-m-toluamide]
100%: Repellency After 1 hour (1 hour after application) | Repellency After 2 hours (2 hours after application) | Repellency After 3 hours (3 hours after application) | Repellency After 4 hours (4 hours after application) | Repellency After 6 hours (6 hours after application)
